Like-named read-outs stand apart in the source and are kept apart here.
System: patients with locally advanced or metastatic solid tumors
Excerpt: This was a Phase Ib, multicenter, open-label, dose-finding clinical trial (NCT02610075). […] Three types of treatment schedules were investigated: cohorts bid 1, bid 2, qd 1.1, qd 2.1 and qd 3.1 received bid or qd treatment on a 5/9 schedule (5 days on treatment, followed by 9 days off) on a 14-day cycle. Cohorts qd 1.2, qd 2.2, and qd 3.2 received treatment on a 5/2 schedule (5 days on followed by 2 days off for 2 of 3 weeks) in a 21-day cycle. Cohorts qd 2.3 and qd 3.3 received treatment on a weekly 5/2 schedule in a 21-day cycle (Table 1). The highest dose level(s) at which less than one-third of evaluable patients (none of 3 patients or 1 of 6 patients) experienced a dose-limiting toxicity (DLT) was declared the MTD.
The per protocol analysis set was defined as a subset of the full analysis set, excluding subjects having an important protocol deviation, to be used for analyses of efficacy endpoints if appropriate.

[1] = qd 3.3: 300 mg 5/2 weekly (n=2)

## C=CCn1c(=O)c2cnc(Nc3ccc(N4CCN(C)CC4)cc3)nc2n1-c1cccc(C(C)(C)O)n1 [adavosertib, Adavosertib]
Qd 3.1: 300 mg qd 5/9 (n=4)
  Dehydration (treatment-emergent AE): 1 (25.0) n (%)
  Dehydration (treatment-related AE): 0 n (%)
  Diarrhea (treatment-emergent AE): 0 n (%)
  Diarrhea (treatment-related AE): 0 n (%)
  Dizziness (treatment-emergent AE): 2 (50.0) n (%)
  Dyspepsia (treatment-emergent AE): 0 n (%)
  Dyspepsia (treatment-related AE): 0 n (%)
  Dyspnea (treatment-emergent AE): 2 (50.0) n (%)
  Edema peripheral (treatment-emergent AE): 2 (50.0) n (%)
  Fall (treatment-emergent AE): 0 n (%)
  Fatigue (treatment-emergent AE): 2 (50.0) n (%)
  Fatigue (treatment-related AE): 1 (25.0) n (%)
  Headache (treatment-emergent AE): 0 n (%)
  Hypokalemia (treatment-emergent AE): 0 n (%)
  Insomnia (treatment-emergent AE): 1 (25.0) n (%)
  Muscle spasms (treatment-emergent AE): 1 (25.0) n (%)
  Myalgia (treatment-emergent AE): 1 (25.0) n (%)
  Myalgia (treatment-related AE): 1 (25.0) n (%)
  Nausea (treatment-emergent AE): 2 (50.0) n (%)
  Nausea (treatment-related AE): 2 (50.0) n (%)
  Neutropenia (treatment-emergent AE): 0 n (%)
  Neutropenia (treatment-related AE): 0 n (%)
  Pneumonia (treatment-emergent AE): 0 n (%)
  Pyrexia (treatment-emergent AE): 0 n (%)
  Rash (treatment-emergent AE): 0 n (%)
  Thrombocytopenia (treatment-emergent AE): 1 (25.0) n (%)
  Thrombocytopenia (treatment-related AE): 1 (25.0) n (%)
  Urinary tract infection (treatment-emergent AE): 0 n (%)
  Vomiting (treatment-emergent AE): 0 n (%)
  Vomiting (treatment-related AE): 0 n (%)
Qd 3.2: 300 mg qd 5/2 (n=16)
  Abdominal pain (treatment-emergent AE): 4 (25.0) n (%)
  Abdominal pain (treatment-related AE): 2 (12.5) n (%)
  Alanine aminotransferase increased (treatment-emergent AE): 0 n (%)
  Anemia (treatment-emergent AE): 8 (50.0) n (%)
  Anemia (treatment-related AE): 6 (37.5) n (%)
  Any AE (treatment-emergent): 16 (100.0) n (%)
  Any grade ≥ 3 AE: 12 (75.0) n (%)
  Any treatment-related AE: 16 (100.0) n (%)
  Any treatment-related grade ≥ 3 AE: 8 (50.0) n (%)
  Asthenia (treatment-emergent AE): 4 (25.0) n (%)
  Asthenia (treatment-related AE): 2 (12.5) n (%)
  Back pain (treatment-emergent AE): 4 (25.0) n (%)
  Constipation (treatment-emergent AE): 4 (25.0) n (%)
  Constipation (treatment-related AE): 0 n (%)
  Cough (treatment-emergent AE): 2 (12.5) n (%)
  Decreased appetite (treatment-emergent AE): 5 (31.3) n (%)
  Decreased appetite (treatment-related AE): 4 (25.0) n (%)
  Dehydration (treatment-emergent AE): 7 (43.8) n (%)
  Dehydration (treatment-related AE): 1 (6.3) n (%)
  Diarrhea (treatment-emergent AE): 9 (56.3) n (%)
  Diarrhea (treatment-related AE): 9 (56.3) n (%)
  Dizziness (treatment-emergent AE): 4 (25.0) n (%)
  Dyspepsia (treatment-emergent AE): 2 (12.5) n (%)
  Dyspepsia (treatment-related AE): 2 (12.5) n (%)
  Dyspnea (treatment-emergent AE): 3 (18.8) n (%)
  Edema peripheral (treatment-emergent AE): 4 (25.0) n (%)
  Fall (treatment-emergent AE): 3 (18.8) n (%)
  Fatigue (treatment-emergent AE): 9 (56.3) n (%)
  Fatigue (treatment-related AE): 8 (50.0) n (%)
  Headache (treatment-emergent AE): 1 (6.3) n (%)
  Hypokalemia (treatment-emergent AE): 4 (25.0) n (%)
  Insomnia (treatment-emergent AE): 0 n (%)
  Muscle spasms (treatment-emergent AE): 1 (6.3) n (%)
  Myalgia (treatment-emergent AE): 3 (18.8) n (%)
  Myalgia (treatment-related AE): 1 (6.3) n (%)
  Nausea (treatment-emergent AE): 9 (56.3) n (%)
  Nausea (treatment-related AE): 7 (43.8) n (%)
  Neutropenia (treatment-emergent AE): 4 (25.0) n (%)
  Neutropenia (treatment-related AE): 4 (25.0) n (%)
  Pneumonia (treatment-emergent AE): 4 (25.0) n (%)
  Pyrexia (treatment-emergent AE): 3 (18.8) n (%)
  Rash (treatment-emergent AE): 2 (12.5) n (%)
  Thrombocytopenia (treatment-emergent AE): 3 (18.8) n (%)
  Thrombocytopenia (treatment-related AE): 3 (18.8) n (%)
  Urinary tract infection (treatment-emergent AE): 3 (18.8) n (%)
  Vomiting (treatment-emergent AE): 5 (31.3) n (%)
  Vomiting (treatment-related AE): 4 (25.0) n (%)
[1]
  Abdominal pain (treatment-emergent AE): 1 (50.0) n (%)
  Abdominal pain (treatment-related AE): 1 (50.0) n (%)
  Alanine aminotransferase increased (treatment-emergent AE): 0 n (%)
  Anemia (treatment-emergent AE): 0 n (%)
  Anemia (treatment-related AE): 0 n (%)
  Any AE (treatment-emergent): 2 (100.0) n (%)
  Any grade ≥ 3 AE: 1 (50.0) n (%)
  Any treatment-related AE: 2 (100.0) n (%)
  Any treatment-related grade ≥ 3 AE: 1 (50.0) n (%)
  Asthenia (treatment-emergent AE): 0 n (%)
  Asthenia (treatment-related AE): 0 n (%)
  Back pain (treatment-emergent AE): 0 n (%)
  Constipation (treatment-emergent AE): 0 n (%)
  Constipation (treatment-related AE): 0 n (%)
  Cough (treatment-emergent AE): 0 n (%)
  Decreased appetite (treatment-emergent AE): 0 n (%)
  Decreased appetite (treatment-related AE): 0 n (%)
  Dehydration (treatment-emergent AE): 0 n (%)
  Dehydration (treatment-related AE): 0 n (%)
  Diarrhea (treatment-emergent AE): 2 (100.0) n (%)
  Diarrhea (treatment-related AE): 2 (100.0) n (%)
  Dizziness (treatment-emergent AE): 1 (50.0) n (%)
  Dyspepsia (treatment-emergent AE): 0 n (%)
  Dyspepsia (treatment-related AE): 0 n (%)
  Dyspnea (treatment-emergent AE): 0 n (%)
  Edema peripheral (treatment-emergent AE): 0 n (%)
  Fall (treatment-emergent AE): 0 n (%)
  Fatigue (treatment-emergent AE): 0 n (%)
  Fatigue (treatment-related AE): 0 n (%)
  Headache (treatment-emergent AE): 0 n (%)
  Hypokalemia (treatment-emergent AE): 1 (50.0) n (%)
  Insomnia (treatment-emergent AE): 0 n (%)
  Muscle spasms (treatment-emergent AE): 0 n (%)
  Myalgia (treatment-emergent AE): 1 (50.0) n (%)
  Myalgia (treatment-related AE): 0 n (%)
  Nausea (treatment-emergent AE): 2 (100.0) n (%)
  Nausea (treatment-related AE): 2 (100) n (%)
  Neutropenia (treatment-emergent AE): 1 (50.0) n (%)
  Neutropenia (treatment-related AE): 1 (50.0) n (%)

Source: PMC10289903 (Investigational New Drugs, 2023)
